The source of these data is patent publication US20250136722A1, “CYTOTOXICITY TARGETING CHIMERAS” (GLAXOSMITHKLINE INTELLECTUAL PROPERTY DEVELOPMENT LIMITED, priority 2021, published 2025).

SMILES strings stand for the structures. “And” between values parts separate entries of the source, which are not always exact repeats. Identical values can stand only once.

In this assay the target is T1, CHOK1 cells engineered to overexpress human CCR2 (Homo sapiens, UniProt P41597).
T1 construct: expressed in transfected cells; host or cells: CHOK1 cells
The assay is described as follows: Antibody dependent cellular cytotoxicity (ADCC) reporter assay (Example 199). It is filed as cell-based. The note with it: with anti-cotinine antibody SEQ ID NO: 11/12; CHOK1-human CCR2 target cells, Jurkat FcγRIIIa NFAT-luciferase reporter cells; 12-18 hours; read-out: ADCC Reporter Assay pEC50 (converted). The method in brief: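 CHOK1-hCCR2 target cells are co-incubated for 12–18 h with Jurkat FcγRIIIa/NFAT-luciferase reporter cells, ARM compound (1 pM–10 μM) and anti-cotinine antibody with a DE-mutant human IgG1 Fc (0.01–200 μg/mL). Luminescence is expressed as signal:background against no-compound wells; EC50 comes from nonlinear fit and is reported as pEC50, averaged across runs.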
(Reporter assays use an easily measured gene product as a stand-in for the process of interest.)
With `CC(C)N(C)[C@@H]1CC[C@H](N2CC[C@H](Nc3ncnc4ccc(C(F)(F)F)cc34)C2=O)[C@H](NC(=O)CCOCCC(=O)N2CCC3(CCC(C(=O)NCCNC(=O)[C@H]4CC(=O)N(C)[C@@H]4c4cccnc4)CC3)CC2)C1` [Example 167, 3-(3-(3-(((1R,2S,5R)-5-(Isopropyl(methyl)amino)-2-((S)-2-oxo-3-((6-(trifluoromethyl)quinazolin-4-yl)amino)pyrrolidin-1-yl)cyclohexyl)amino)-3-oxopropoxy)propanoyl)-N-(2-((2S,3S)-1-methyl-5-oxo-2-(pyridin-3-yl)pyrrolidine-3-carboxamido)ethyl)-3-azaspiro[5.5]undecane-9-carboxamide], the EC50 is 1.26 nM.
Under `CC(C)N(C)[C@@H]1CC[C@H](N2CC[C@H](Nc3ncnc4ccc(C(F)(F)F)cc34)C2=O)[C@H](NC(=O)[C@H]2CC[C@@H](NC(=O)CCCOCCCOCCCNC(=O)[C@H]3CC(=O)N(C)[C@@H]3c3cccnc3)CC2)C1` [Example 193, (2S,3S)-N-(3-(3-(4-(((1S,4s)-4-(((1R,2S,5R)-5-(Isopropyl(methyl)amino)-2-((S)-2-oxo-3-((6-(trifluoromethyl)quinazolin-4-yl)amino)pyrrolidin-1-yl)cyclohexyl)carbamoyl)cyclohexyl)amino)-4-oxobutoxy)propoxy)propyl)-1-methyl-5-oxo-2-(pyridin-3-yl)pyrrolidine-3-carboxamide] stands 0.398 nM and 0.126 nM; under `CC(C)N(C)[C@@H]1CC[C@H](N2CC[C@H](Nc3ncnc4ccc(C(F)(F)F)cc34)C2=O)[C@H](NC2CCC(C(=O)NCCOCCOCCNC(=O)[C@H]3CC(=O)N(C)[C@@H]3c3cccnc3)CC2)C1` (some centres unmarked) [Example 68], 10 nM; under `CC(C)N(C)[C@@H]1CC[C@H](N2CC[C@H](Nc3ncnc4ccc(C(F)(F)F)cc34)C2=O)[C@H](NC(=O)C2CCN(C3CCN(C(=O)CCOCCOCCNC(=O)[C@H]4CC(=O)N(C)[C@@H]4c4cccnc4)CC3)CC2)C1` [Example 172, N-((1R,2S,5R)-5-(Isopropyl(methyl)amino)-2-((S)-2-oxo-3-((6-(trifluoromethyl)quinazolin-4-yl)amino)pyrrolidin-1-yl)cyclohexyl)-1′-(3-(2-(2-((2S,3S)-1-methyl-5-oxo-2-(pyridin-3-yl)pyrrolidine-3-carboxamido)ethoxy)ethoxy)propanoyl)-[1,4′-bipiperidine]-4-carboxamide], 0.794 nM.
For the compound `CC(C)N(C)[C@@H]1CC[C@H](N2CC[C@H](Nc3ncnc4ccc(C(F)(F)F)cc34)C2=O)[C@H](NC(=O)C2CCC(N3CC(C(=O)NCCOCCOCCNC(=O)[C@H]4CC(=O)N(C)[C@@H]4c4cccnc4)C3)CC2)C1` (some centres unmarked) [Example 131], the EC50 is 3.16 nM.
Next, `CC(C)N(C)[C@@H]1CC[C@H](N2CC[C@H](Nc3ncnc4ccc(C(F)(F)F)cc34)C2=O)[C@H](NC(=O)CCCNC(=O)CCCC(=O)NCCCOCCCNC(=O)[C@@H]2CC(=O)N(C)[C@H]2c2cccnc2)C1` [Example 21]: 0.469 nM; `CC(C)N(C)[C@@H]1CC[C@H](N2CC[C@H](Nc3ncnc4ccc(C(F)(F)F)cc34)C2=O)[C@H](NC(=O)C2CCN(C3CCN(CCOCCOCCNC(=O)[C@H]4CC(=O)N(C)[C@@H]4c4cccnc4)CC3)CC2)C1` [Example 90, N-((1R,2S,5R)-5-(Isopropyl(methyl)amino)-2-((S)-2-oxo-3-((6-(trifluoromethyl)quinazolin-4-yl)amino)pyrrolidin-1-yl)cyclohexyl)-1′-(2-(2-(2-((2S,3S)-1-methyl-5-oxo-2-(pyridin-3-yl)pyrrolidine-3-carboxamido)ethoxy)ethoxy)ethyl)-[1,4′-bipiperidine]-4-carboxamide]: 2 nM.
Next, `CC(C)N(C)[C@@H]1CC[C@H](N2CC[C@H](Nc3ncnc4ccc(C(F)(F)F)cc34)C2=O)[C@H](NC(=O)[C@H]2CC[C@H](N3CCN(C(=O)CCCCCCCCNC(=O)[C@H]4CC(=O)N(C)[C@@H]4c4cccnc4)CC3)CC2)C1` [Example 155]: 1.58 nM.
